According to patent publication US11970497B2, “Tricyclic AKR1C3 dependent KARS inhibitors” (Novartis AG, priority 2019, dated 2024):

Columns and labels:
[1] = molecular target: T1, Human KARS (Homo sapiens, UniProt Q15046); assay: KARS AMP Transcreener FP assay; type: biochemical; conditions: 50 nM human KARS, 20 μM ATP, 50 μM L-Lysine, 1 μM tRNA, 2 h at RT; read-out: Human KARS Transcreener AMP assay Qualified absolute AC50
T1 construct: Human KARS protein (residues 70-584) was expressed and purified; made in house
T1 sequence (Q15046 70-584): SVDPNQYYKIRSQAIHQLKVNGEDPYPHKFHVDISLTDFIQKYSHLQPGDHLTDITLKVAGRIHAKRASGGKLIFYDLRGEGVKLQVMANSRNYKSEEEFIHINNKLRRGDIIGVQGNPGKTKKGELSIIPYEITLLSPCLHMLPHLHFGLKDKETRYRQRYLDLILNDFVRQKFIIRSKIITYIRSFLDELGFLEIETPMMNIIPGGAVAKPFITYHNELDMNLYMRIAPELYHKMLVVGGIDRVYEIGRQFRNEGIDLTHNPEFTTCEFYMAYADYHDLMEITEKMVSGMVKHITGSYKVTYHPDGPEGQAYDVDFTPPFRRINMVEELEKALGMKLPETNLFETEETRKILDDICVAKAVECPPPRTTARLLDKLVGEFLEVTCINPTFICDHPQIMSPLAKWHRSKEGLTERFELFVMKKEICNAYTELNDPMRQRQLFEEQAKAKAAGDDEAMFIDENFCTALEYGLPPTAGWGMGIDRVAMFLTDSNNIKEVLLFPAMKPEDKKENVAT
From the text: KARS AMP Transcreener FP Assay to Measure Inhibition of KARS Enzymatic Activity
Lysine-tRNA synthetase (KARS) is an enzyme that catalyzes the reaction of ATP, L-lysine, and tRNA(Lys) to form AMP, diphosphate, and L-lysyl-tRNA(Lys).
The Transceener® AMP/GMP (BellBrook Labs, Madison, WI, USA) is a far red, competitive fluorescence polarization (FP) immunoassay based on the detection of AMP, which is one of the products of aminoacylation of tRNA. In this assay, a fluorescently labeled AMP (AMP Alexa Fluor 633) is used as the tracer that can be recognized by a specific antibody. In the absence of AMP, all the tracer molecules are bound to the antibodies leading to large polarization. The AMP product generated by the enzyme reaction will compete with the tracer for binding to the antibody which leads to a decrease in the polarization. As such, the enzyme activity is inversely proportional to FP values.
Human KARS protein (residues 70-584) was expressed and purified using a similar protocol to what is described in literature (Crystal structure of tetrameric form of human lysyl-tRNA synthetase: Implications for multisynthetase complex formation Guo, M., Ignatov, M., Musier-Forsyth, K., Schimmel, P., Yang, X. L. (2008) Proc. Natl. Acad. Sci. Usa 105: 2331-2336).
The KARS enzyme assay was performed in a final volume of 10 μL per well of Corning Costar 384 well plate, flat bottom, black non-treated plate. The final assay concentration was 20 mM HEPES pH 7.5, 1 mM DTT, 50 nM human KARS, 20 μM ATP, 50 μM L-Lysine, 1 μM tRNA and 8 mM MgCl2. Compounds were serial diluted 1:3 in DMSO in a master plate to generate a 10 concentration points dose response with maximum concentration of 10 mM. 50 nL from compound master plate were spotted in each well of a 384 black plate (Corning 3573), and 5 μL of enzyme mixture containing 100 nM KARS diluted in assay buffer (20 mM HEPES pH 7.5 and 1 mM OTT) were added. The reaction was started by adding 5 μL of the substrate mixture containing 40 μM ATP (final 20 μM ATP), 100 μM L-Lysine (final 50 μM), 2 μM tRNA (final 1 μM), 16 mM MgCl2 (final 8 mM MgCl2) diluted in assay buffer (20 mM HEPES pH 7.5 and 1 mM OTT). The mixtures were mixed and incubated for 2 h at RT before the termination of the reaction.
Transcreener® stop and detection buffers were prepared (1× stop buffer [final: 0.5×], 2 nM Tracer [final: 1 nM] and 5 μg/ml anti-AMP antibody [final: 2.5 μg/ml] in deionized water) and 10 μL of the stop and detection mix were added to the reaction wells, mixed for a minute and centrifuged at 1000 rpm for 10 seconds. The plates were read after incubating at RT for 30-60 min using Infinite® M1000 with the following settings: Excitation wavelength: 635 nm; Emission wavelength: 680 nm. FP values of DMSO controls were used to normalize the data and calculate IC50s of compounds using the Helios Software suite.

[2] = test system: H460 (NRF2 pathway mutant cell line with high AKR1C3 expression); assay: In vitro cell proliferation assay (CellTiter-Glo), H460; type: cell-based; conditions: Homo sapiens, NCI-H460, 72 h; H460 cells, 3 days, CellTiter-Glo, top concentration 10 μM; read-out: H460 Qualified absolute AC50
How it was run: (§1)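 Cells seeded day 1 (H460 800/well, Hara 2000/well) in RPMI-1640 with 10% FBS; compounds added day 2 as 8-point 1:5 dilutions from 10 μM top. After 3 days at 37 °C, viability read by CellTiter-Glo luminescence, normalized to DMSO and MG132 (30 μM) controls to derive percentage activity and AC50.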

[3] = test system: Hara (NRF2 pathway wild type cell line with low AKR1C3 expression); assay: In vitro cell proliferation assay (CellTiter-Glo), Hara; type: cell-based; conditions: 72 h; Hara cells, 3 days, CellTiter-Glo, top concentration 10 μM; read-out: HARA Qualified absolute AC50
How it was run: as §1

SMILES | AC50 [1] [nM] | AC50 [2] [nM] | AC50 [3] [nM]
CN1c2ccc(F)cc2[C@H](O)CC12CCN(C(=O)NCc1ccc(F)cc1)CC2 (single isomer, unassigned) [Example 151a] | 9.1 | 24 | 20
COCCNc1cc(F)ccc1CNC(=O)N1CCC2(CC1)CC(O)c1cc(F)ccc1N2C (racemic) [Example 166, 6′-fluoro-N-(4-fluoro-2-((2-methoxyethyl)amino)benzyl)-4′-hydroxy-1′-methyl-3′,4′-dihydro-1′H-spiro[piperidine-4,2′-quinoline]-1-carboxamide] | 243 | 3 | 22
CN1c2ccc(F)cc2C(O)CC12CCN(C(=O)NCc1ccc(F)c(NCCO)c1)CC2 (stereo not shown) [Example 165, 6′-fluoro-N-(4-fluoro-3-((2-hydroxyethyl)amino)benzyl)-4′-hydroxy-1′-methyl-3′,4′-dihydro-1′H-spiro[piperidine-4,2′-quinoline]-1-carboxamide] | 199 | 49 | 23
O=C(NCc1ccc(F)cc1O)N1CCC2(CC1)C[C@@H](O)c1cc(F)ccc1N2 (single isomer, unassigned) [Example 154a] | 11.7 | 5 | 5
O=C(NCc1ccc(F)cc1)N1CCC2(CC1)C[C@@H](O)c1cc(F)ccc1N2 (single isomer, unassigned) [Example 152] | 9.1 | 21 | 16
O=C(NC1CC(O)C1)c1cc(CNC(=O)N2CCC3(CC2)CC(O)c2cc(F)ccc2N3)ccc1F (racemic) [Example 162, 6′-fluoro-N-(4-fluoro-3-((3-hydroxycyclobutyl)carbamoyl)benzyl)-4′-hydroxy-3′,4′-dihydro-1′H-spiro[piperidine-4,2′-quinoline]-1-carboxamide] | 73.7 | 47 | 
O=C(NCC(F)(F)F)c1cc(CNC(=O)N2CCC3(CC2)CC(=O)c2cc(F)ccc2N3)ccc1F [Example 101, 6′-fluoro-N-(4-fluoro-3-((2,2,2-trifluoroethyl)carbamoyl)benzyl)-4′-oxo-3′,4′-dihydro-1′H-spiro[piperidine-4,2′-quinoline]-1-carboxamide] |  | 528 | > 10000
COc1cc(CNC(=O)N2CCC3(CC2)CC(=O)c2cc(F)ccc2N3C)ccc1F [Example 8, 6′-fluoro-N-(4-fluoro-3-methoxybenzyl)-1′-methyl-4′-oxo-3′,4′-dihydro-1′H-spiro[piperidine-4,2′-quinoline]-1-carboxamide] |  | 15 | > 10000
O=C(NC1COC1)c1cc(CNC(=O)N2CCC3(CC2)CC(=O)c2cc(F)ccc2N3)ccc1F [Example 105, 6′-fluoro-N-(4-fluoro-3-(oxetan-3-ylcarbamoyl)benzyl)-4′-oxo-3′,4′-dihydro-1′H-spiro[piperidine-4,2′-quinoline]-1-carboxamide] |  | 580 | > 10000
O=C1CC2(CCN(C(=O)NCc3cccc4nonc34)CC2)Nc2ccc(F)cc21 [Example 141, N-(benzo[c][1,2,5]oxadiazol-4-ylmethyl)-6′-fluoro-4′-oxo-3′,4′-dihydro-1′H-spiro[piperidine-4,2′-quinoline]-1-carboxamide] |  | 2450 | > 10000
Cn1ncc(Cl)c1CNC(=O)N1CCC2(CC1)CC(=O)c1cc(F)ccc1N2 [Example 93, N-((4-chloro-1-methyl-1H-pyrazol-5-yl)methyl)-6′-fluoro-4′-oxo-3′,4′-dihydro-1′H-spiro[piperidine-4,2′-quinoline]-1-carboxamide] |  | 5730 | > 10000
O=C1CC2(CCN(C(=O)NCc3ccc(F)cc3O)CC2)Nc2ccc(F)cc21 [Example 43, 6′-fluoro-N-(4-fluoro-2-hydroxybenzyl)-4′-oxo-3′,4′-dihydro-1′H-spiro[piperidine-4,2′-quinoline]-1-carboxamide] |  | 99 | > 10000
NC(=O)c1cccc(CNC(=O)N2CCC3(CC2)CC(=O)c2cc(F)ccc2N3)c1 [Example 69, N-(3-carbamoylbenzyl)-6′-fluoro-4′-oxo-3′,4′-dihydro-1′H-spiro[piperidine-4,2′-quinoline]-1-carboxamide] |  | 233 | > 10000
Cn1cc(CNC(=O)N2CCC3(CC2)CC(=O)c2cc(F)ccc2N3)cn1 [Example 145, 6′-fluoro-N-((1-methyl-1H-pyrazol-4-yl)methyl)-4′-oxo-3′,4′-dihydro-1′H-spiro[piperidine-4,2′-quinoline]-1-carboxamide] |  | 3500 | 6060
CN1c2ccc(F)cc2C(=O)CC12CCN(C(=O)NCc1ccc(F)c(N)c1)CC2 [Example 27, N-(3-amino-4-fluorobenzyl)-6′-fluoro-1′-methyl-4′-oxo-3′,4′-dihydro-1′H-spiro[piperidine-4,2′-quinoline]-1-carboxamide] |  | 48 | > 10000
COc1cc(F)ccc1CNC(=O)N1CCC2(CC1)CC(O)c1cc(F)ccc1N2 (racemic) [Example 168, 6′-fluoro-N-(4-fluoro-2-methoxybenzyl)-4′-hydroxy-3′,4′-dihydro-1′H-spiro[piperidine-4,2′-quinoline]-1-carboxamide] |  | 41 | 49
NC(=O)c1coc(CNC(=O)N2CCC3(CC2)CC(=O)c2cc(F)cc(F)c2N3)c1 [Example 38, N-((4-carbamoylfuran-2-yl)methyl)-6′,8′-difluoro-4′-oxo-3′,4′-dihydro-1′H-spiro[piperidine-4,2′-quinoline]-1-carboxamide] |  | 82 | > 10000
CS(=O)(=O)Nc1cc(CNC(=O)N2CCC3(CC2)CC(=O)c2cc(F)ccc2N3)ccc1F [Example 131, 6′-fluoro-N-(4-fluoro-3-(methylsulfonamido)benzyl)-4′-oxo-3′,4′-dihydro-1′H-spiro[piperidine-4,2′-quinoline]-1-carboxamide] |  | 1620 | > 10000
NS(=O)(=O)c1cccc(CNC(=O)N2CCC3(CC2)CC(=O)c2cc(F)ccc2N3)c1 [Example 74, 6′-fluoro-4′-oxo-N-(3-sulfamoylbenzyl)-3′,4′-dihydro-1′H-spiro[piperidine-4,2′-quinoline]-1-carboxamide] |  | 305 | > 10000
COC(=O)c1cc(CNC(=O)N2CCC3(CC2)CC(=O)c2cc(F)ccc2N3)ccc1F [Example 61, methyl 2-fluoro-5-((6′-fluoro-4′-oxo-3′,4′-dihydro-1′H-spiro[piperidine-4,2′-quinoline]-1-carboxamido)methyl)benzoate] |  | 205 | 3040
O=C1CC2(CCN(C(=O)NCc3ccc(F)cc3)CC2)N(CCO)c2ccc(F)cc21 [Example 19, 6′-fluoro-N-(4-fluorobenzyl)-1′-(2-hydroxyethyl)-4′-oxo-3′,4′-dihydro-1′H-spiro[piperidine-4,2′-quinoline]-1-carboxamide] |  | 31 | 694
O=C1CC2(CCN(C(=O)NCc3ccc(OC(F)F)cc3)CC2)Nc2c(F)cc(F)cc21 [Example 150, N-(4-(difluoromethoxy)benzyl)-6′,8′-difluoro-4′-oxo-3′,4′-dihydro-1′H-spiro[piperidine-4,2′-quinoline]-1-carboxamide] |  | 6270 | 2620
